Experimental findings from ChEMBL document CHEMBL5230139, “Inhibitors of Eukaryotic Translational Machinery as Therapeutic Agents” (J Med Chem, 2021) are described below.

The subject of series [1] is H2K mdx. Description: (§1) In vivo activation of dystrophin in mouse H2K mdx cells assessed as increase in production of dystrophin protein. Format: functional.
Series [2] has as its system Cystic fibrosis transmembrane conductance regulator (Homo sapiens), P13569 [UNDEFINED MUTATION]. Description: In vivo activation of human […]-G542X mutant xenografted in mouse model assessed as induction of […] channel expression at 34 mg/kg administered daily. It counts as functional, organism-based.
Series [3] has as its system HeLa. Briefly: Antiproliferative activity against human HeLa cells assessed as cell growth inhibition. It counts as functional, cell-based.
The nature of series [4]: Antiproliferative activity against mouse JB6 Cl 41-5a cells assessed as cell growth inhibition. It counts as functional, cell-based.
In series [5] the test system is A549. Description: Antiproliferative activity against human A549 cells assessed as cell growth inhibition incubated for 24 by 14C-thymidine incorporation assay. Format: functional, cell-based. For orientation: Uptake of a labelled nucleoside into DNA is a usual measure of proliferation.
The subject of series [6] is HCT-116. Briefly: Antiproliferative activity against human HCT-116 cells assessed as cell growth inhibition incubated for 24 by 14C-thymidine incorporation assay. It counts as functional, cell-based.
A short description of series [7]: Inhibition of EIF1A (unknown origin). Also noted: species or system Homo sapiens.
Series [8] has as its system SK-MEL-28. Description: Antiproliferative activity against human SK-MEL-28 cells assessed as cell growth inhibition incubated for 3 days. It counts as functional, cell-based. The conditions noted are these: SK-MEL-28, 72 h.
Series [9] concerns P388. Description: Inhibition of protein synthesis in mouse P388 cells measured after 72 hrs. It counts as functional, cell-based. Conditions: P388, 72 h; call rule not given here.
Series [10] deals with HT-29. Briefly: Antiproliferative activity against human HT-29 cells assessed as cell growth inhibition incubated for 3 days. Format: functional, cell-based. The conditions noted are these: HT-29, 72 h.
For series [11], the system named is A549. Description: Antiproliferative activity against human A549 cells assessed as cell growth inhibition incubated for 3 days. Format: functional, cell-based. Conditions: A549, 72 h.
The subject of series [12] is P388. Briefly: Inhibition of DNA synthesis in mouse P388 cells measured after 72 hrs. Conditions: P388, 72 h. Format: functional, cell-based.
Series [13] relates to P388. Description: Inhibition of RNA synthesis in mouse P388 cells measured after 72 hrs. Format: functional, cell-based.
Series [14] has as its system P388. Briefly: Antiproliferative activity against mouse P388 cells assessed as cell growth inhibition incubated for 3 days. It counts as functional, cell-based. The conditions noted are these: P388, 72 h.
In series [15] the test system is U-937. Description: Antiproliferative activity against human U-937 cells assessed as cell growth inhibition incubated for 48 hrs by MTS assay. Format: functional, cell-based. Conditions: U-937, 48 h.
Series [16] concerns NB-4. Briefly: Antiproliferative activity against human NB-4 cells assessed as cell growth inhibition incubated for 48 hrs by MTS assay. Format: functional, cell-based. Conditions: NB-4, 48 h.
For series [17], the system named is HeLa. Description: Antiproliferative activity against human HeLa cells assessed as cell growth inhibition by [35S] methionine incorporation assay. Format: functional, cell-based.
Series [18] relates to HL-60. Description: Antiproliferative activity against human HL-60 cells assessed as cell growth inhibition incubated for 48 hrs by MTS assay. The conditions noted are these: HL-60, 48 h. Format: functional, cell-based.
Series [19] deals with OCI-AML-3. Description: Antiproliferative activity against human OCI-AML-3 cells assessed as cell growth inhibition incubated for 48 hrs by MTS assay. Format: functional, cell-based. Conditions: OCI-AML-3, 48 h. Background: Formazan colour is commonly taken as a measure of viable cells.
The test system of series [20] is OCI-AML2. Briefly: Antiproliferative activity against human OCI-AML2 cells assessed as cell growth inhibition incubated for 48 hrs by MTS assay. The conditions noted are these: OCI-AML2, 48 h. It counts as functional, cell-based.
The subject of series [21] is SARS-CoV-2. Briefly: Antiviral activity against SARS CoV-2 clinical isolate 2019-nCoV infected with African green monkey Vero E6 cells by qRT-PCR analysis. Conditions: Severe acute respiratory syndrome coronavirus 2, 2019-nCoV, Vero C1008. Format: functional, organism-based. On the technique in general: In qPCR the cycle at which signal appears reflects the starting amount.

The test system of series [22] is L1210. Description: Anticancer activity against mouse L1210 cells allografted in mouse assessed as increase in survival rate. It counts as functional.
Series [23] in a line: as §1. Format: functional.
Series [24] has as its system 3T3-L1. Description: Cytotoxicity against mouse 3T3-L1 adipocyte assessed as inhibition of fat accumulation incubated for 30 mins. Format: toxicity, cell-based. Conditions: 3T3-L1, 0.5 h.
In series [25] the test system is HCT-116. Description: Antiproliferative activity against human HCT-116 cells assessed as cell growth inhibition. It counts as functional, cell-based.
Series [26] deals with SARS-CoV-2. Briefly: Antiviral activity against SARS-CoV-2 infected in African green monkey Vero E6 cells assessed as inhibition of viral replication. It counts as functional, organism-based. The conditions noted are these: Severe acute respiratory syndrome coronavirus 2, Vero C1008.
Series [27] can be described thus: Inhibition of EIF1A in human Jurkat cells assessed as reduction in T-cell receptor-mediated IL-2 expression. It counts as cell-based.
The nature of series [28]: Cytotoxicity against mouse NIH/3T3 cells assessed as reduction in cell viability incubated for 4 days by SRB assay. Format: toxicity, cell-based, NIH3T3.

Numbered stars: 1 amine (or outer) side, 2 acyl side, 3 side chain; on linkers, the order of the positions; unused ones are H or OH. Bridge positions count the residues as written; N and C are the ends. Square brackets hold non-standard residues; d marks the D form. Peptide text beside a SMILES is read from it. X1 = CC[C@H](C)[C@@H](N[*:1])[C@@H](O)CC(=O)O[C@H](C(=O)[C@H](C)C(=O)[*:2])C(C)C; NMeY = CN[C@@H](Cc1ccc(O)cc1)C(=O)O; dNMeL = CN[C@H](CC(C)C)C(=O)O

Cystic fibrosis transmembrane conductance regulator (Homo sapiens), P13569 [UNDEFINED MUTATION], sequence (P13569 whole entry, looked up): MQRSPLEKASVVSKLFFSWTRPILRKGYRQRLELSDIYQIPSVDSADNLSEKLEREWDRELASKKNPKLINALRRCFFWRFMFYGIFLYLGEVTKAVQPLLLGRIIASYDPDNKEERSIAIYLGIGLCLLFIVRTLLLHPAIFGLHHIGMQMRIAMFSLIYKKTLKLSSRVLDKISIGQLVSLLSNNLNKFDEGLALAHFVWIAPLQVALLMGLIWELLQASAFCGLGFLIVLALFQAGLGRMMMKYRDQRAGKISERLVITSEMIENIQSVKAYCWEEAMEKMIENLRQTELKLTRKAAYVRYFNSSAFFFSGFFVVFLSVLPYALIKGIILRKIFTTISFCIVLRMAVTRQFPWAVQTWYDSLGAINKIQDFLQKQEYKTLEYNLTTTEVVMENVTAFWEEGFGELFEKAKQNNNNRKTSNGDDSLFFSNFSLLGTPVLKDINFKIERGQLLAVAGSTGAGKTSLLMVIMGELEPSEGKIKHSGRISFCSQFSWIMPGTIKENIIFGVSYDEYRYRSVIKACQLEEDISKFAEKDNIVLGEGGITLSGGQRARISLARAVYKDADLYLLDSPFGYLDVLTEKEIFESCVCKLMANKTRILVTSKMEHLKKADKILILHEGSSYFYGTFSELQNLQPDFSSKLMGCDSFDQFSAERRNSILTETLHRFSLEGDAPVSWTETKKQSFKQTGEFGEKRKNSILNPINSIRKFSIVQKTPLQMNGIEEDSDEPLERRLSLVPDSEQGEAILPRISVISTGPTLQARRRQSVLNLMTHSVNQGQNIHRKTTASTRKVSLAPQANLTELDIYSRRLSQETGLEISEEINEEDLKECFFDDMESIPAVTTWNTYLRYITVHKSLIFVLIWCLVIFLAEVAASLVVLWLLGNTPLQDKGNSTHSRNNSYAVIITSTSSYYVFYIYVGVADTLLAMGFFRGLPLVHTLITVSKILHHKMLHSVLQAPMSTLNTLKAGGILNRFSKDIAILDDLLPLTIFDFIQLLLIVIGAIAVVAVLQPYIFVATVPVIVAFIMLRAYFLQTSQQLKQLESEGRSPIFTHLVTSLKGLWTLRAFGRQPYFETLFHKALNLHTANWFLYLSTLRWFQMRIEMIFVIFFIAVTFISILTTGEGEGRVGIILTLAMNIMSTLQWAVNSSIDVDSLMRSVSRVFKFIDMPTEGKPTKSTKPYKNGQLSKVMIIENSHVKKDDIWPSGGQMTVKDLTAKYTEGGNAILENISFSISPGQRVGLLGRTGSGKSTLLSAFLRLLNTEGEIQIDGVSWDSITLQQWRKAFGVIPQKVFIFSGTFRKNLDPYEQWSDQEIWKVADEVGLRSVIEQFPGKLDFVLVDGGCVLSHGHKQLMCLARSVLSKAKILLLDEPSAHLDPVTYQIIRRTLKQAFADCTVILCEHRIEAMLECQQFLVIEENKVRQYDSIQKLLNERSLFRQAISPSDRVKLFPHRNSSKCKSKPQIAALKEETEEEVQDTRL

For GENTAMICIN, the Activity in series [1] and in series [2] was 10% in each case.

As to `C=C1C[C@](OC)([C@H](O)C(=O)N[C@H]2OCO[C@H]3[C@@H]2O[C@H](C[C@H](O)CO)C(C)(C)[C@@H]3OC)O[C@H](C)[C@@H]1C` [MYCALAMIDE A], the IC50 in series [3] turned out to be 5 nM; in series [4] it was 1 nM.

Take `COc1cc(C[C@H]2NC(=O)[C@H](C(C)C)N(C)C(=O)/C=C\C[C@@H](OC)/C(C)=C/C=C/[C@@H](C)[C@@H](c3ccccc3)OC(=O)[C@H](C(C)C)NC2=O)ccc1O`: the IC50 was 20 nM in [5] and 49 nM in series [6].

As for `CC[C@H](C)[C@H]1NC(=O)[C@@H](NC(=O)[C@@H](CC(C)C)NC)[C@@H](C)OC(=O)[C@H](Cc2ccc(OC)cc2)N(C)C(=O)[C@@H]2CCCN2C(=O)[C@H](CC(C)C)NC(=O)[C@@H](C)C(=O)[C@H](C(C)C)OC(=O)C[C@@H]1O` [DIDEMNIN A] (H-[dNMeL]T[X1]LP[NMeY](Me); ester 2-C), the IC50 is 400 nM in series [7]; 20 nM in series [8]; 400 nM in [9]; 20 nM in [10]; 12 nM in series [11]; 1000 nM in series [12]. Further, the IC50 result is “Not Active” in [13] (p388) and 10 nM in series [14].

With `COC(=O)[C@H]1[C@@H](O)[C@@]2(O)c3c(OC)cc(O[C@@H]4O[C@@H]([C@H](O)CO)CO[C@H]4OC)cc3O[C@@]2(c2ccc(OC)cc2)[C@@H]1c1ccccc1` [SILVESTROL], the IC50 was 4 nM in series [15]; 4 nM in series [16]; 20 nM in series [17]; 4 nM in [18]; 4 nM in [19]; 4 nM in series [20].

In turn, `NC(=O)c1ncn([C@@H]2O[C@H](CO)[C@@H](O)[C@H]2O)n1` [RIBAVIRIN] gave a half-maximal effective concentration (EC50) in [21] of 110000 nM.

Regarding `CN1C(=O)N[C@H]2[C@@H]3NC(=O)c4ccc(Br)n4[C@@H]3C[C@]21O` [AGELASTATIN A], the Survival in series [22] is recorded as 63%.

On to `O=C(O)c1cccc(-c2noc(-c3ccccc3F)n2)c1` [ATALUREN], for which, in series [23], the Activity was found to be 20%.

Consider `CC[C@H](C)[C@H]1NC(=O)[C@@H]([C@H](O)C(C)C)NC(=O)[C@@H](C)N(C)C(=O)[C@H](C)N(C)C(=O)[C@H](CC(C)C)NC(=O)[C@H](CC(C)C)N(C)C(=O)[C@H](C)N(C)C1=O`, for which the concentration giving a half-maximal response (EC50) in series [24] turned out to be 20 nM. For the same compound, in [25], the IC50 worked out at 71 nM.

In the case of `CC[C@H](C)[C@H]1NC(=O)[C@@H](NC(=O)[C@@H](CC(C)C)N(C)C(=O)[C@@H]2CCCN2C(=O)C(C)=O)[C@@H](C)OC(=O)[C@H](Cc2ccc(OC)cc2)N(C)C(=O)[C@@H]2CCCN2C(=O)[C@H](CC(C)C)NC(=O)[C@@H](C)C(=O)[C@H](C(C)C)OC(=O)C[C@@H]1O` [PLITIDEPSIN], the IC50 in series [7] was 500 nM; in [8], 0.5 nM; in series [9], 500 nM; in series [10], 0.5 nM; in series [11], 0.2 nM; in series [12], 100 nM. The IC50 in series [13] (Mus musculus, P388, 72 h, read-out: IC50) was over 1000 nM; in series [14], 0.2 nM.

The compound `CC[C@H](C)[C@H]1NC(=O)[C@@H](NC(=O)[C@@H](CC(C)C)N(C)C(=O)[C@@H]2CCCN2C(C)=O)[C@@H](C)OC(=O)[C@H](Cc2ccc(OC)cc2)N(C)C(=O)[C@@H]2CCCN2C(=O)[C@H](CC(C)C)NC(=O)[C@@H](C)C(=O)[C@H](C(C)C)OC(=O)C[C@@H]1O` (Ac-P[dNMeL]T[X1]LP[NMeY](Me); ester 3-C) yielded an IC50 in series [7] of 100 nM.

For the compound `COC(=O)C[C@](O)(CCCC(C)(C)O)C(=O)O[C@@H]1C(OC)=C[C@]23CCCN2CCc2cc4c(cc2[C@H]13)OCO4` [OMACETAXINE MEPESUCCINATE], the EC50 in series [26] worked out at 60 nM.

As to `C/C1=C/C=C\C(=O)O[C@H](/C=C(C)/C=C/C=C/CN(C)C)Cc2csc(n2)CCCCC(=O)O[C@H](C)C1`, the IC50 in series [27] came out at 0.8 nM.

With `COc1ccc([C@@]23Oc4cc(OC)cc(OC)c4[C@]2(O)[C@H](O)[C@H](C(=O)N(C)C)[C@H]3c2ccccc2)cc1` [ROCAGLAMIDE], in series [17], the concentration for half-maximal inhibition (IC50) was 100 nM.

On to `COc1ccc([C@@]23Oc4cc(OC)cc(OC)c4[C@@]24NC(C)=N[C@@]4(O)[C@H](C(=O)N(C)OC)[C@H]3c2ccccc2)cc1`, for which the IC50 at 4 days in series [28] amounted to 2 nM.

Consider `CONC(=O)[C@H]1[C@@H](O)[C@@]2(O)c3c(OC)cc(OC)cc3O[C@@]2(c2ccc(OC)cc2)[C@@H]1c1ccccc1`, for which the IC50 at 4 days in [28] is 9 nM.

The term IC50 denotes the concentration that inhibits the measured activity by half. The term EC50 denotes the midpoint of the concentration-response curve.
